According to US20250325517A1, “ORAL DOSAGE FORMS OF ELRAGLUSIB” (Actuate Therapeutics, Inc., priority 2022, published 2025):

Assay: Kinetic solubility of six ASDs in biorelevant media (SGF, FaSSIF, FeSSIF) at 37° C., 1 and 2 h
Type: physicochemical
Protocol: The three biorelevant media were: SGF, FaSSIF, and FeSSIF. These were prepared using procedure and FaSSIF/FeSSIF/FaSSGF Powder obtained from Biorelevant.com (https://biorelevant.com/learning_center/how-make-fassif/). A suspension of each ASD was prepared in SGF, FaSSIF, and FeSSIF and each was allowed to stir at 400 rpm. An aliquot of the supernatant was taken out at 1 and 2 hours, syringe filtered using a cellulose acetate filter ([…] pore size) and analyzed by HPLC. The solubilities of each ASD in SGF, FaSSIF, and FeSSIF are presented in Table 2A-8, Table 2A-9, and Table 2A-10, respectively. […] In addition, at 2 hours the remaining solids were analyzed by XRPD. […] These peaks correspond to residual FeSSIF buffer crystallizing on the ASD solids upon drying. (See Tables 2A-8, -9, and -10).

1 hr solubility in FeSSIF (n = 2) (37° C., 400 rpm): 5 µg/mL | 2 hr solubility in FeSSIF (n = 2) (37° C., 400 rpm): 6 µg/mL | XRPD after FeSSIF (solids remaining at 2 hours): Form I + one peak ~9°
Compound: Cn1cc(C2=C(c3coc4ccc(F)cc34)C(=O)NC2=O)c2cc3c(cc21)OCO3 [NA]
